Experimental data as given in patent publication US7407940B2, “Antimicrobial hexapeptides” (Helix BioMedix Inc., priority 2005, dated 2008).
Where a SMILES comes first, the peptide text is derived from it. The star is where a group is joined. Octanoyl = CCCCCCCC(=O)*

Experiments:
MRSA = experiment: Kill curve in 10% sheep serum-phosphate buffer against MRSA; format: cell-based, S. aureus; details: 10% serum / biological environments
[1] = parameters: species or system Sprague-Dawley rats; details: rat, in vivo
Text: Each wound observed at each dressing change and the wound surface and tissue reaction assessed. There were 5 parameters of wound status that were checked: • i. Wound Film Security—Was the adhesive film used to cover the wound still completely adherent to the skin around the wound? • ii. Wound Surface—What was the exact visual appearance of the wound surface? • iii. Amount of Exudate—How much exudate was trapped under the film? In many cases, accumulated exudate causes the film to lose adherence and the exudates will escape. • iv. Severity of Tissue Reaction—A subjective rating of extent of tissue reaction on a scale of 1 (minimal), 2 (moderate), 3 (extensive). • v. % of Tissue Involved—In some situations, the wound surface contained denatures, friable tissue that could be wiped off with pressure applied to gauze. This test was used to better differentiate denatured tissue from viscous exudates.

P. aeruginosa = format: cell-based; details: drug resistant P. aeruginosa
Procedure: (§1) The fractional inhibitory concentration (FIC) index was used to determine the synergy between antimicrobial agents. Peptide MICs against test microorganisms were determined three times on separate occasions. […]

C. albicans = experiment: Kill curve in vaginal simulant, C. albicans; format: cell-based; details: FIG. 2
Text: (§2) An additional embodiment of the invention is directed towards methods of treating sexually transmitted diseases (STDs). Many of the fungal species responsible for STDs are likely to be inhibited or killed by application of one or more of the inventive hexapeptides of Table 1. Examples of such species include C. albicans, C. glabrata, and C. tropicalis. The inventive hexapeptide/s may additionally be used against other agents responsible for STDs including viruses and bacteria. The hexapeptide/s can be administered to an STD patient by any acceptable method, such as topical, oral, or systemic delivery. The hexapeptide/s can be administered in a single dose, in multiple doses, or as a continuous delivery. The hexapeptide/s can be administered in any acceptable form, such as a cream, gel, or liquid. An indication of the likelihood of activity of the hexapeptides of the present invention in the vaginal environment is shown in FIG. 2, where the activity of SEQ ID NO:55 is shown in killing curves against C. Albicans and S. aureus.

Lipoteichoic acid (LTA) = experiment: LTA binding assay; details: FIG. 7
Text: Lipoteichoic acid (LTA) is a common cell wall component of gram-positive bacteria including organisms such as S. aureus and P. acnes. The release of LTA during infection can lead to the release of mediators of the host inflammatory response which in turn can result in sepsis (septic shock). For example, when injected into animals, LTA can elicit many of the characteristic features of septic shock, including cytokine production, leukocytopenia, circulatory failure, multiple-organ dysfunction syndrome, and mortality.

[2] = test system: azole resistant strains of C. albicans; format: cell-based; details: azole resistant strains of C. albicans
Procedure: as §1
All strains are azole resistant clinical isolates from Prof. Ted White (Seattle Biotechnology Research Institute, Seattle)

S. aureus = experiment: Kill curve in vaginal simulant, S. aureus; format: cell-based; details: FIG. 2
Text: as §2

CCCCCCCC(=O)N[C@@H](CCCCN)C(=O)N[C@@H](Cc1ccccc1)C(=O)N[C@@H](CCCCN)C(=O)N[C@@H](Cc1c[nH]c2ccccc12)C(=O)N1CCC[C@H]1C(=O)N[C@@H](Cc1c[nH]c2ccccc12)C(N)=O [SEQ ID NO:55] (Octanoyl-KFKWPW-NH2)
ability to kill S. aureus in serum (in words) (MRSA): increased ability
tissue reaction (in words) [1]: mild
synergy with polymyxin B (in words) (P. aeruginosa): displayed synergistic activity
killing in vaginal simulant (in words) (C. albicans): killing
LTA binding (in words) (Lipoteichoic acid (LTA)): fail to bind LTA
synergy with clotrimazole (in words) [2]: exhibits synergy
killing in vaginal simulant (in words) (S. aureus): killing
